Values joined by “and” are separate entries in the source; they are usually repeats but may differ in a detail not shown here. Equal entries are not always repeated. Square brackets hold non-standard residues; d marks the D form. Ends that are not written are not given here. Peptide text beside a SMILES is read from it. pY = N[C@@H](Cc1ccc(OP(=O)(O)O)cc1)C(=O)O
Biological target: Cdc4 (Saccharomyces cerevisiae, UniProt P07834)
Assay: Fluorescence polarization equilibrium binding of peptides to Cdc4
Set-up: made in house; host or cells: Cdc4: baculovirus-infected insect (Sf9) cells; Gst-Skp1: E. coli BL21 codon plus; species or system yeast
Method: Equilibrium binding constant determination was carried out using fluorescence polarization on a Beacon 2000 Fluorescence Polarization System (Pan Vera, Wis.) equipped with a 100 μL sample chamber. Fluorescein-labeled probes were prepared through the reaction of carboxyterminal-peptides with 5-(and-6)-carboxyfluorescein succinimidyl ester (Molecular Probes), purified by reverse-phase HPLC, and confirmed by mass spectrometry. Binding studies were conducted with 5 nM fluorescein-labeled probe dissolved in PBS containing 100 μg/ml BSA and 1 mM dithiothreitol. Reaction mixtures were allowed to equilibrate for 10 minutes at room temperature prior to each measurement. All fluorescence polarization measurements were conducted at 22° C.

[1] = K, (μM), Table 1, average of at least 3 sets of readings, ± SEM, ND = no binding detected up to [Cdc4/Skp1] of 10 μM, ˜ = saturation binding not achieved

Molecule	Kd [1]	other results
CC[C@H](C)[C@H](NC(=O)[C@H](CC(C)C)NC(=O)[C@H](CCC(N)=O)NC(=O)[C@H](CCC(=O)O)NC(=O)[C@H](CCC(N)=O)NC(=O)[C@@H]1CCCN1C(=O)[C@@H](NC(=O)[C@H](Cc1ccccc1)NC(=O)[C@H](CCC(N)=O)NC(=O)[C@@H]1CCCN1C(=O)[C@H](Cc1ccccc1)NC(=O)[C@H](CCC(=O)O)NC(=O)CNC(=O)[C@@H](NC(=O)c1ccc2c(c1)C(=O)OC21c2ccc(O)cc2Oc2cc(O)ccc21)[C@@H](C)O)[C@@H](C)OP(=O)(O)O)C(=O)O [FarpT306, TGEFPQFpTPQEQLI] (HELM PEPTIDE1{[O=C1OC2(c3ccc(O)cc3Oc3cc(O)ccc32)c2ccc(C(=O)[*:2])cc21].T.G.E.F.P.Q.F.[C[C@@H](OP(=O)(O)O)[C@H](N[*:1])C(=O)[*:2]].P.Q.E.Q.L.I}$$$$V2.0)	~25 µM	–
CC(=O)NCCCC[C@H](NC(=O)[C@@H]1CCCN1C(=O)[C@@H]1CCCN1C(=O)[C@@H](NC(=O)[C@H](CC(C)C)NC(=O)[C@H](CC(C)C)NC(=O)CNC(=O)c1ccc2c(c1)C(=O)OC21c2ccc(O)cc2Oc2cc(O)ccc21)[C@@H](C)OP(=O)(O)O)C(=O)N[C@@H](CO)C(=O)NCC(=O)O [CycEK3Ac-9mer, GLLpTPPK(Ac)SG] (HELM PEPTIDE1{[O=C1OC2(c3ccc(O)cc3Oc3cc(O)ccc32)c2ccc(C(=O)[*:2])cc21].G.L.L.[C[C@@H](OP(=O)(O)O)[C@H](N[*:1])C(=O)[*:2]].P.P.K.S.G}|PEPTIDE2{[ac]}$PEPTIDE1,PEPTIDE2,8:R3-1:R2$$$V2.0)	1 ± 0.1 µM	–
CC(C)C[C@H](NC(=O)CNC(=O)c1ccc2c(c1)C(=O)OC21c2ccc(O)cc2Oc2cc(O)ccc21)C(=O)N[C@@H](CC(C)C)C(=O)N[C@H](C(=O)N1CCC[C@H]1C(=O)N1CCC[C@H]1C(=O)N[C@@H](CCC(N)=O)C(=O)N[C@@H](CO)C(=O)NCC(=O)O)[C@@H](C)OP(=O)(O)O [CycE-9mer, GLLpTPPQSG] (HELM PEPTIDE1{[O=C1OC2(c3ccc(O)cc3Oc3cc(O)ccc32)c2ccc(C(=O)[*:2])cc21].G.L.L.[C[C@@H](OP(=O)(O)O)[C@H](N[*:1])C(=O)[*:2]].P.P.Q.S.G}$$$$V2.0)	1 ± 0.05 µM	–
CSCC[C@H](NC(=O)[C@@H]1CCCN1C(=O)[C@@H]1CCCN1C(=O)[C@@H](NC(=O)[C@@H](NC(=O)[C@@H]1CCCN1C(=O)[C@@H]1CCCN1C(=O)c1ccc2c(c1)C(=O)OC21c2ccc(O)cc2Oc2cc(O)ccc21)C(C)C)[C@@H](C)OP(=O)(O)O)C(=O)N[C@@H](CO)C(=O)N1CCC[C@H]1C(=O)O [Ash 1 pT290, PPVpTPPMSP] (HELM PEPTIDE1{[O=C1OC2(c3ccc(O)cc3Oc3cc(O)ccc32)c2ccc(C(=O)[*:2])cc21].P.P.V.[C[C@@H](OP(=O)(O)O)[C@H](N[*:1])C(=O)[*:2]].P.P.M.S.P}$$$$V2.0)	~25 µM	–
CC[C@H](C)[C@H](NC(=O)[C@@H]1CCCN1C(=O)[C@@H](NC(=O)[C@H](CC(C)C)NC(=O)[C@H](CC(C)C)NC(=O)[C@H](CCC(=O)O)NC(=O)c1ccc2c(c1)C(=O)OC21c2ccc(O)cc2Oc2cc(O)ccc21)[C@@H](C)OP(=O)(O)O)C(=O)N[C@@H](CC(C)C)C(=O)N[C@@H](C)C(=O)N[C@@H](Cc1ccccc1)C(=O)O [Pc17, ELLpTPILAF] (HELM PEPTIDE1{[O=C1OC2(c3ccc(O)cc3Oc3cc(O)ccc32)c2ccc(C(=O)[*:2])cc21].E.L.L.[C[C@@H](OP(=O)(O)O)[C@H](N[*:1])C(=O)[*:2]].P.I.L.A.F}$$$$V2.0)	~40 µM	–
GLLpYPPQSG (GLL[pY]PPQSG) [CycEpY-9mer]	–	binding to Cdc4 (in words): failed to bind
CC(C)C[C@H](NC(=O)[C@@H](NC(=O)[C@@H]1CCCN1C(=O)[C@@H](NC(=O)[C@@H]1CCCN1C(=O)[C@H](CC(C)C)NC(=O)[C@H](Cc1ccccc1)NC(=O)c1ccc2c(c1)C(=O)OC21c2ccc(O)cc2Oc2cc(O)ccc21)[C@@H](C)OP(=O)(O)O)C(C)C)C(=O)N[C@@H](CCC(=O)O)C(=O)N[C@@H](CC(=O)O)C(=O)O [Gcn4-9mer, FLPpTPVLED] (HELM PEPTIDE1{[O=C1OC2(c3ccc(O)cc3Oc3cc(O)ccc32)c2ccc(C(=O)[*:2])cc21].F.L.P.[C[C@@H](OP(=O)(O)O)[C@H](N[*:1])C(=O)[*:2]].P.V.L.E.D}$$$$V2.0)	–	Kd (dissociation constant Kd for Cdc4): 0.675 µM and 0.88 µM
